Data on two compounds can be found in ChEMBL document CHEMBL3886595, “Compounds and compositions for inhibiting the activity of ABL1, ABL2 and BCR-ABL1” (2016).

Experiment [1] deals with T1, Tyrosine-protein kinase ABL1 (Homo sapiens, UniProt P00519). Kind of experiment: Radio ABL1 (64-515) Assay: For determination of ABL kinase activity, the radiometric filter-binding assay was used. The assay was performed by mixing 10 uL of the compound pre-diluted with 10 uL of ATP (20 uM ATP with 0.1 uCi [γ-33P]-ATP) with the phospho-acceptor peptide poly[Ala6Glu2LysHBr5Tyr1]=polyAEKY) in 20 mM Tris/HCl pH 7.5, 1 mM DTT, 10 mM MgCl2, 0.01 mM Na3VO4, 50 mM NaCl. 10 uL of ….
T1 sequence (P00519 whole entry): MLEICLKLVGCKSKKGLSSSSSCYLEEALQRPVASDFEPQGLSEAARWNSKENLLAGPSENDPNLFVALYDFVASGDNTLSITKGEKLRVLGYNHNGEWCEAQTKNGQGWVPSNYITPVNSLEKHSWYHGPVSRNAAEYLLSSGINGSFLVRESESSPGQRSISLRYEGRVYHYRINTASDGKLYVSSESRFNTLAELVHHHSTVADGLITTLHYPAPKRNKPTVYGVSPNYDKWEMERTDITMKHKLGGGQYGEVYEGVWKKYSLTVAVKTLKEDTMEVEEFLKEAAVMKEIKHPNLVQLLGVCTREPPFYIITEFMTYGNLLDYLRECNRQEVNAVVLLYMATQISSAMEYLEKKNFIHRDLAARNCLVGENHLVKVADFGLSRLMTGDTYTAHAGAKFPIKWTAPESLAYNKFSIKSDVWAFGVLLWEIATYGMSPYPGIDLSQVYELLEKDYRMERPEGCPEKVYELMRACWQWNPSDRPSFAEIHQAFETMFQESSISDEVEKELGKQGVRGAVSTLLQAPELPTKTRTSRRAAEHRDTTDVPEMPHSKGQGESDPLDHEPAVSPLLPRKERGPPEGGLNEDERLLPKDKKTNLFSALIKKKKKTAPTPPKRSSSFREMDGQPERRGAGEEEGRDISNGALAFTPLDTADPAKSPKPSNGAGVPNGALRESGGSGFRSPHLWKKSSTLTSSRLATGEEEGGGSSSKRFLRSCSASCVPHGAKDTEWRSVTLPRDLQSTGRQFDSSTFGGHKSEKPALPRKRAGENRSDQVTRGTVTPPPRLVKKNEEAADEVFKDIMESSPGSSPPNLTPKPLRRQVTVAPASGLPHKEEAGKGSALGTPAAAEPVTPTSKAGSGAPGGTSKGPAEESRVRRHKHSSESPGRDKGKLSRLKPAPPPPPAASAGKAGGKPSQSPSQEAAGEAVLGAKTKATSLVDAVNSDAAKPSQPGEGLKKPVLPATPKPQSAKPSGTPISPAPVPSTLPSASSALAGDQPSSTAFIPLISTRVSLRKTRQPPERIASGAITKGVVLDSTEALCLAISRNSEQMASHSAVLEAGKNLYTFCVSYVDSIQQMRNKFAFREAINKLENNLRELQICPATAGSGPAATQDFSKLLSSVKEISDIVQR
Description: 10 uL of enzyme (ranging between 5 nM to 20 nM) was added to initiate the reaction. Pre-incubation of enzyme with compounds (when stated) was performed by exposing the enzyme to compounds prior to addition of the substrate mixture (ATP and/or peptide substrate). […] Filter-plates were washed 3x with 0.5% H3PO4, followed by addition of 30 uL scintillation cocktail (Microscint, Perkin Elmer) per well and then analysed in a TopCount NXT scintillation counter (Perkin Elmer).

In experiment [2] the target is T1, Tyrosine-protein kinase ABL1. Description: Caliper ABL : The assay plates were prepared by addition of 50 nL per well of compound solution in 90% DMSO. The kinase reactions were started by stepwise addition of 4.5 uL per well of peptide/ATP-solution (50 mM HEPES, pH 7.5, 1 mM DTT, 0.02% BSA, 0.6% DMSO, 10 mM beta-glycerophosphate, and 10 uM sodium orthovanadate, 20 mM MgCl2, 2 mM MnCl2, 4 uM ATP, 4 uM peptide (FITC-Ahx-EAIYAAPFAKKK-NH2)) ….

In general, IC50 refers to the point on the concentration scale where inhibition reaches its midpoint.

On to `Cc1ccc(-c2cc(C(=O)Nc3ccc(OC(F)(F)F)cc3)cnc2N2CC[C@H](N)C2)cn1`, for which the IC50 in experiment [1] stood at 7 nM.
Take `O=C(Nc1ccc(OC(F)(F)F)cc1)c1cnc(N2CC[C@H](CO)C2)c(-c2cncc(F)c2)c1`: the results for the IC50 in experiment [1] and in experiment [2] were 6.3 nM and 0.6 nM, respectively.
